This is an account of results in publication PMC11973506, “In vitro α–Glucosidase Inhibition, Cytotoxicity, SAR, Swiss ADME Prediction and Molecular Docking Study of New N–Substituted Hydantoin Derivatives” (ChemistryOpen, 2025).

Molecules are shown by their SMILES. Where two headings read alike, the source gives them in different places.

As usually defined, the inhibition is the change of the read-out against control, counted positive when it falls.

For series [1], the target named is T1, Saccharomyces cerevisiae α-glucosidase (Saccharomyces cerevisiae, UniProt P53341).
T1 construct: purchased
Kind of series: In vitro α-glucosidase inhibition assay (p-nitrophenyl glucopyranoside substrate). The format is biochemical. The procedure: Using Saccharomyces cerevisiae α‐glucosidase enzymes, hydantoin derivatives 8 a–o were evaluated for them for their in vitro α‐glucosidase activity.
The α‐glucosidase inhibitions of compounds 8 a–o were screened as described in our previous method.[21] Epigallacatechin gallate (EGCG) was used as positive control. The α‐glucosidase enzyme (Saccharomyces Cerevisiae, 50 μg/mL) and substrate (p‐nitrophenyl glucopyranoside) were dissolved in a solution of potassium phosphate buffer (pH 6.3, 3 mM). Final compounds 8 a–o were dissolved in DMSO to give a final concentration of 200 μM. […] All samples (5 μL), enzyme (20 μL), and potassium phosphate buffer (60 μL) were added to the 96‐well plate and incubated at 37 °C for 5 min. Thereafter, the substrate (10 μL, 4 mM) was added to the mixture and incubated at 37 °C for 20 min followed by the addition of sodium carbonate (25 μL). Finally, the absorbance readings were measured by BioTek® PowerWave XS spectrophotometer (Winooski, VT, USA). Since the enzyme and substrate controls […], the percentage of α‐glucosidase inhibition was calculated using follows: (1) %α-glucosidaseinhibition=(A405nmofcontrol-A405nmoftestsample)/A405nmofcontrol×100

The next series concerns Caco2 cell line. The following applies: 48 hours of treatment with 100 μM, below 2000 considered toxic. The procedure: Cytotoxicity screening is one of the important tools used to determine whether a compound is toxic or not. Furthermore, these assays are performed by testing the ability of cells to continue proliferating in the presence of a test compound or substance over a specific period.[23] All hydantoin title compounds 8 a–o were screened for their in vitro cytotoxicity activity using the Caco2 cell line against the untreated (UT) and melphalan as a control. […] Any compound with living cells below […] was considered to be toxic.
The human colorectal adenocarcinoma cell line (CaCO2) used to screen the cytotoxicity of compounds 8 a–o was based on our initially described protocol.[21] […] Samples were sonicated if solubility was a problem and stored at 4 °C until required. Melphalan (100 mM stock) was prepared in DMSO and used as a positive control at a final concentration of 30 μM. The cells (4000 cells/well) were seeded in 96 well plates at 100 μL aliquots and were left for 24 hours to attach. After 24 hours, the 100 μL of the medium was treated with 100 μL aliquots of 200 μM dilution. Cells were maintained in 10 cm culture dishes in 10 mL complete medium (DMEM‐LG+10 % FBS+1× penicillin/streptomycin) and incubated for 48 hours at 37 °C, 5 % CO2, and 100 % relative humidity until needed. After incubation 100 μL staining solution Hoechst (5 μg/mL) and 10 μL PI solution were stained on the plates before they were incubated again for 30 min. Quantification of live and dead cells was performed using the ImageXpress Micro XLS Widefield Microscope (Molecular Devices) using a 10× Plan Fluor objective and DAPI and Texas Red filter cubes. Acquired images were analyzed using the MetaXpress software and Multi‐Wavelength Cell Scoring Application Module. Acquired data was transferred to an Excel spreadsheet and data was analyzed and processed.

[2] abbreviates: text statement for 50 and 100 μM together.

T1 sequence (P53341 whole entry): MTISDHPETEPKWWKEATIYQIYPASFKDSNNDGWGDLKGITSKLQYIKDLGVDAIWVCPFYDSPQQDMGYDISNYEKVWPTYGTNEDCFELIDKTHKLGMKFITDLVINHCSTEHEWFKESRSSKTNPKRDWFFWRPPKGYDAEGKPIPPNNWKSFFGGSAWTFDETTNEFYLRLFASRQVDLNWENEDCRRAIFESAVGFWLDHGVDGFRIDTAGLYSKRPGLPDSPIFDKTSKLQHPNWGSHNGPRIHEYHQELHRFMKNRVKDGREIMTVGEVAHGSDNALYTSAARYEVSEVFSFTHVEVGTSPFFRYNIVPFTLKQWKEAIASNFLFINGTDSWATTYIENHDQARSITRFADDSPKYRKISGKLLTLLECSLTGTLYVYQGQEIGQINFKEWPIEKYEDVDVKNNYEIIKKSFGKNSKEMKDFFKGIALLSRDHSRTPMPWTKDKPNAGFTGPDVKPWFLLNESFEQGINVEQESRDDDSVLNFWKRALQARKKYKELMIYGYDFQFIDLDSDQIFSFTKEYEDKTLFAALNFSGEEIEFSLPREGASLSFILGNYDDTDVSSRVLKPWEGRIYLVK

The molecule `COC(=O)C(NC(=O)CN1C(=O)N/C(=C\c2ccc(OC)cc2)C1=O)C(C)C` (stereo not drawn) [8 c] gave an inhibition at 50 µM in series [1] (50 μM) of 3.37 ± 11.5%. In series [1] (100 μM), this molecule had an inhibition at 100 µM of 9.51 ± 19.7%. Besides, in series [1] (200 μM), the inhibition at 200 µM worked out at 41 ± 2.62%.

Regarding `COC(=O)C(C)NC(=O)CN1C(=O)N/C(=C\c2ccc(C)cc2)C1=O` (stereo not drawn) [8 e], the “Cytotoxicity, live cells” value with Caco2 cell line is 2567 ± 299. Further, the α-glucosidase inhibition entry in series [1] (10 μM) was “‐”; in series [1] (200 μM), 31.35 ± 1.95%. In series [1] (50 μM), this molecule returned an inhibition at 50 µM of 9.01 ± 16.4%. The same molecule registered an inhibition at 100 µM in series [1] (100 μM) of 9.75 ± 6.4%. This molecule also yielded an inhibition at 200 µM in series [1] (200 μM) of 51.4%.

As for `CCC(NC(=O)CN1C(=O)NC(=Cc2ccc(OC)cc2)C1=O)C(=O)OC` (stereo not drawn) [8 b], in series [1] (50 μM), at 50 µM the inhibition was 0.43 ± 16.8%. The same molecule registered an inhibition at 200 µM in series [1] (200 μM) of 39.3 ± 1.01%.

`CCOC(=O)C(NC(=O)CN1C(=O)N/C(=C\c2ccc(C)cc2)C1=O)C(C)C` (stereo not drawn) [8 j]: in the series on Caco2 cell line, the “Cytotoxicity, live cells” value is given as 2565 ± 198. The inhibition at 10 µM in series [1] (10 μM) is 6.49 ± 17.8%. The molecule further came in with an inhibition at 50 µM in series [1] (50 μM) of 13.8 ± 9.6%. In series [1] (100 μM), this molecule showed an inhibition at 100 µM of 19.2 ± 10.2%. The molecule also gave an inhibition at 200 µM in series [1] (200 μM) of 48.5 ± 2.33%.

Consider `COC(=O)C(C)NC(=O)CN1C(=O)N/C(=C\c2ccc3c(c2)OCO3)C1=O` (stereo not drawn) [8 l], for which, in series [1] (10 μM), the α-glucosidase inhibition result is recorded as “‐”. The inhibition at 50 µM in series [1] (50 μM) was 7.7 ± 17.8%. The same molecule gave an inhibition at 100 µM in series [1] (100 μM) of 9.6 ± 23%. In series [1] (200 μM), this molecule came in with an inhibition at 200 µM of 57.4 ± 4.05%.

The molecule `CCCC(NC(=O)CN1C(=O)N/C(=C\c2ccc(C)cc2)C1=O)C(=O)OC` (stereo not drawn) [8 h] returned an inhibition at 10 µM in series [1] (10 μM) of 3.45 ± 13.6%. The molecule also returned an inhibition at 50 µM in series [1] (50 μM) of 16.3 ± 15.2%. In series [1] (100 μM), this molecule registered an inhibition at 100 µM of 25.4 ± 7.88%. The molecule also returned an inhibition at 200 µM in series [1] (200 μM) of 42.8 ± 4.3%.

For the molecule `O=C(O[C@@H]1Cc2c(O)cc(O)cc2O[C@@H]1c1cc(O)c(O)c(O)c1)c1cc(O)c(O)c(O)c1` [EGCG, Epigallocatechin gallate, reference compound], the inhibition at 10 µM in series [1] (10 μM) is 97.03 ± 0.41%. In series [1] (50 μM), this molecule displayed an inhibition at 50 µM of 97.03 ± 0.41%. Further, the inhibition at 100 µM in series [1] (100 μM) came out at 97.03 ± 0.41%. This molecule yielded an inhibition at 200 µM in series [1] (200 μM) of 97.03 ± 0.41%.

On to `CCOC(=O)C(C)NC(=O)CN1C(=O)N/C(=C\c2ccc(C)cc2)C1=O` (stereo not drawn) [8 i], for which the “Cytotoxicity, live cells” value in the series on Caco2 cell line was found to be 2595 ± 289. Also, the α-glucosidase inhibition entry is given as “‐” in series [1] (10 μM), “‐” in series [1] (50 μM), “‐” in series [1] (100 μM) and “no activity” in series [1] (setting [2]). In series [1] (200 μM), this molecule showed an inhibition at 200 µM of 44.6 ± 0.99%.

In the case of `COC(=O)C(C)NC(=O)CN1C(=O)N/C(=C\c2ccc(OC)cc2)C1=O` (stereo not drawn) [8 a], the results for the “Cytotoxicity, live cells” value in the series on Caco2 cell line and in the series on Caco2 cell line (listed as 8a) were 2605 and 2605 ± 293, respectively. This molecule displayed an inhibition at 200 µM in series [1] (200 μM) of 51.6 ± 2.92%. Moreover, the α-glucosidase inhibition entry is “moderate inhibition” in series [1] (200 μM) and “no activity” in series [1] (setting [2]).

Turning to `CCCC(NC(=O)CN1C(=O)N/C(=C\c2ccc3c(c2)OCO3)C1=O)C(=O)OC` (stereo not drawn) [8 o], in series [1] (10 μM), 10 µM produced 11.3 ± 15.2% inhibition. In addition, the inhibition at 50 µM in series [1] (50 μM) worked out at 16 ± 17.9%. The molecule also came in with an inhibition at 100 µM in series [1] (100 μM) of 37.4 ± 24.9%. In addition, at 200 µM the inhibition in series [1] (200 μM) was 57.8 ± 6.38%.

In the case of `CCC(NC(=O)CN1C(=O)N/C(=C\c2ccc(C)cc2)C1=O)C(=O)OC` (stereo not drawn) [8 f], the “Cytotoxicity, live cells” value in the series with Caco2 cell line was found to be 2230 ± 570. Besides, in series [1] (10 μM), 10 µM produced 4.92 ± 18% inhibition. For the same molecule, the inhibition at 50 µM in series [1] (50 μM) came out at 8.87 ± 21.3%. This molecule registered an inhibition at 100 µM in series [1] (100 μM) of 12.2 ± 10.9%.

As for `CCC(NC(=O)CN1C(=O)N/C(=C\c2ccc3c(c2)OCO3)C1=O)C(=O)OC` (stereo not drawn) [8 m], in series [1] (10 μM), the α-glucosidase inhibition result is on record as “‐”. In series [1] (50 μM), 50 µM produced 6.94 ± 10.9% inhibition. The inhibition at 100 µM in series [1] (100 μM) was 11.2 ± 11%. In series [1] (200 μM), this molecule displayed an inhibition at 200 µM of 37.6 ± 10%.

Turning to `COC(=O)C(NC(=O)CN1C(=O)N/C(=C\c2ccc(C)cc2)C1=O)C(C)C` (stereo not drawn) [8 g], testing at 10 µM in series [1] (10 μM) gave an inhibition of 1.8 ± 13.8%. The inhibition at 50 µM in series [1] (50 μM) was 4.13 ± 4.26%. The molecule also came in with an inhibition at 100 µM in series [1] (100 μM) of 18 ± 3.95%. The inhibition at 200 µM in series [1] (200 μM) is 45.2 ± 3.6%.

As to `CCOC(=O)C(NC(=O)CN1C(=O)N/C(=C\c2ccc3c(c2)OCO3)C1=O)C(C)C` (stereo not drawn) [8 n], the “Cytotoxicity, live cells” value in the series with Caco2 cell line is on record as 2039 ± 740. Testing at 10 µM in series [1] (10 μM) gave an inhibition of 0.73 ± 11.4%. This molecule also returned an inhibition at 50 µM in series [1] (50 μM) of 14 ± 16.4%. This molecule displayed an inhibition at 100 µM in series [1] (100 μM) of 28.3 ± 17.3%. In series [1] (200 μM), this molecule had an inhibition at 200 µM of 57.4 ± 2.79%.

Regarding `CCCC(NC(=O)CN1C(=O)N/C(=C\c2ccc(C)cc2)C1=O)C(=O)OCC` (stereo not drawn) [8 k], testing at 50 µM in series [1] (50 μM) gave an inhibition of 14.5 ± 5.42%. This molecule showed an inhibition at 100 µM in series [1] (100 μM) of 17 ± 8.54%. In addition, the inhibition at 200 µM in series [1] (200 μM) is 41.9 ± 3.31%.
